From patent US20050004134A1, “Thiazole derivative and pharmaceutical use thereof” (priority 2001, published 2005)

melting point | SMILES
245 to 246 °C | CC(C)n1nc(-c2sc(NC(=O)c3ccccn3)nc2-c2ccccc2)ccc1=O [Example 26, N-[5-(1-Isopropyl-6-oxo-1,6-dihydro-3-pyridazinyl)-4-phenyl-1,3-thiazol-2-yl]-2-pyridinecarboxamide]
194 to 195 °C | CC(C)n1nc(-c2sc(Nc3ccccn3)nc2-c2ccccc2)ccc1=O [Example 67, 2-Isopropyl-6-[4-phenyl-2-(2-pyridinylamino)-1,3-thiazol-5-yl]-3(2H)-pyridazinone]
250 to 252 °C | CC(C)n1nc(-c2sc(NC(=O)CNCCN3CCOCC3)nc2-c2ccccc2)ccc1=O.Cl.Cl
198 to 199 °C | CC(C)CC(=O)Nc1nc(-c2ccccc2)c(-c2ccc(=O)n(C(C)C)n2)s1 [Example 58, N-[5-(1-Isopropyl-6-oxo-1,6-dihydro-3-pyridazinyl)-4-phenyl-1,3-thiazol-2-yl]-3-methylbutanamide]
144 to 145 °C | CCn1nc(-c2sc(C(=O)NC3CC3)nc2-c2ccccc2)ccc1=O [Example 190, N-cyclopropyl-5-(1-ethyl-6-oxo-1,6-dihydro-3-pyridazinyl)-4-phenyl-1,3-thiazole-2-carboxamide]
90 to 92 °C | CCCCCCNc1nc(-c2ccccc2)c(-c2ccc(=O)n(C(C)C)n2)s1 [Example 14, 6-[2-(hexylamino)-4-phenyl-1,3-thiazol-5-yl]-2-isopropyl-3(2H)-pyridazinone]
111 to 113 °C | CC(C)n1nc(-c2sc(NC(=O)c3ccc(CNCCO)cc3)nc2-c2ccccc2)ccc1=O [Example 138, 4-{[(2-Hydroxyethyl)amino]methyl}-N-[5-(1-isopropyl-6-oxo-1,6-dihydro-3-pyridazinyl)-4-phenyl-1,3-thiazol-2-yl]benzamide]
187.5 to 188.5 °C | Cc1cnc(CNC(=O)c2nc(-c3ccc(F)cc3)c(-c3ccc(=O)n(C(C)C)n3)s2)cn1 [Example 221, 4-(4-Fluorophenyl)-5-(1-isopropyl-6-oxo-1,6-dihydro-3-pyridazinyl)-N-[(5-methyl-2-pyrazinyl)methyl]-1,3-thiazole-2-carboxamide]
198 to 199 °C | CC(C)n1nc(-c2sc(NC(=O)OC(C)(C)C)nc2-c2ccccc2)ccc1=O [Example 95, tert-butyl 5-(1-isopropyl-6-oxo-1,6-dihydro-3-pyridazinyl)-4-phenyl-1,3-thiazol-2-ylcarbamate]
188 to 189.5 °C | CC(C)n1nc(-c2sc(C(=O)NCc3ccccn3)nc2-c2cccc(F)c2)ccc1=O [Example 208, 4-(3-Fluorophenyl)-5-(1-isopropyl-6-oxo-1,6-dihydro-3-pyridazinyl)-N-(2-pyridinylmethyl)-1,3-thiazole-2-carboxamide]
226 to 228 °C | Br.CNc1nc(-c2ccccc2)c(-c2ccc(=O)n(C(C)C)n2)s1
> 250 °C | CC(C)n1nc(-c2sc(C(N)=S)nc2-c2ccccc2)ccc1=O [Example 240, 5-(1-isopropyl-6-oxo-1,6-dihydro-3-pyridazinyl)-4-phenyl-1,3-thiazole-2-carbothioamide]
225 to 226 °C | CC(C)n1nc(-c2sc(C(=O)NC3CCCCC3)nc2-c2ccccc2)ccc1=O [Example 225, N-Cyclohexyl-5-(1-isopropyl-6-oxo-1,6-dihydro-3-pyridazinyl)-4-phenyl-1,3-thiazole-2-carboxamide]
199 to 200 °C | CC(C)n1nc(-c2sc(NC(=O)N(C)C)nc2-c2ccccc2)ccc1=O [Example 50, N′-[5-(1-Isopropyl-6-oxo-1,6-dihydro-3-pyridazinyl)-4-phenyl-1,3-thiazol-2-yl]-N,N-dimethylurea]
219 to 220 °C | CC(C)n1nc(-c2sc(NC(=O)c3ccccc3C(F)(F)F)nc2-c2ccccc2)ccc1=O [Example 40, N-[5-(1-Isopropyl-6-oxo-1,6-dihydro-3-pyridazinyl)-4-phenyl-1,3-thiazol-2-yl]-2-(trifluoromethyl)benzamide]
244 to 246 °C | CC(C)n1nc(-c2sc(NC(=O)CN3CCN(C)CC3)nc2-c2ccccc2)ccc1=O.Cl.Cl
136 to 142 °C | CC(C)n1nc(-c2sc(NC(=O)CNCCN(C)C)nc2-c2ccccc2)ccc1=O.Cl.Cl
224 to 225 °C | CC(C)n1nc(-c2sc(NC(=O)CCN3CCCC3)nc2-c2ccccc2)ccc1=O.Cl
181 to 182 °C | CC(C)n1nc(-c2sc(C(=O)N3CCN(Cc4ccccc4)CC3)nc2-c2ccccc2)ccc1=O [Example 229, 6-{2-[(4-Benzyl-1-piperazinyl)carbonyl]-4-phenyl-1,3-thiazol-5-yl}-2-isopropyl-3(2H)-pyridazinone]
165 to 166 °C | CCCNc1nc(-c2ccccc2)c(-c2ccc(=O)n(C(C)C)n2)s1 [Example 73, 2-Isopropyl-6-[4-phenyl-2-(propylamino)-1,3-thiazol-5-yl]-3(2H)-pyridazinone]

melting point | SMILES
158 to 160 °C | CC(C)n1nc(-c2sc(N(C)C)nc2-c2ccccc2)ccc1=O [Example 23, 6-[2-(dimethylamino)-4-phenyl-1,3-thiazol-5-yl]-2-isopropyl-3(2H)-pyridazinone]
226.5 to 227.5 °C | CC(C)n1nc(-c2sc(C(N)=O)nc2-c2ccc(F)cc2)ccc1=O [Example 165, 4-(4-Fluorophenyl)-5-(1-isopropyl-6-oxo-1,6-dihydro-3-pyridazinyl)-1,3-thiazole-2-carboxamide]
221 to 222 °C | Cc1ccccc1C(=O)Nc1nc(-c2ccccc2)c(-c2ccc(=O)n(C(C)C)n2)s1 [Example 34, N-[5-(1-Isopropyl-6-oxo-1,6-dihydro-3-pyridazinyl)-4-phenyl-1,3-thiazol-2-yl]-2-methylbenzamide]
198 to 199.5 °C | C=CCn1nc(-c2sc(C(N)=O)nc2-c2ccccc2)ccc1=O [Example 162, 5-(1-Allyl-6-oxo-1,6-dihydro-3-pyridazinyl)-4-phenyl-1,3-thiazole-2-carboxamide]
172 to 172.5 °C | COCCn1nc(-c2sc(C(=O)NC(C)C)nc2-c2ccccc2)ccc1=O [Example 183, N-isopropyl-5-[1-(2-methoxyethyl)-6-oxo-1,6-dihydro-3-pyridazinyl]-4-phenyl-1,3-thiazole-2-carboxamide]
170 to 171.5 °C | CC(=O)NCCNC(=O)c1nc(-c2ccccc2)c(-c2ccc(=O)n(C(C)C)n2)s1 [Example 217, N-[2-(Acetylamino)ethyl]-5-(1-isopropyl-6-oxo-1,6-dihydro-3-pyridazinyl)-4-phenyl-1,3-thiazole-2-carboxamide]
> 250 °C | CC(C)n1nc(-c2sc(NC(=O)c3ccc(CCl)cc3)nc2-c2ccccc2)ccc1=O [Example 56, 4-(Chloromethyl)-N-[5-(1-isopropyl-6-oxo-1,6-dihydro-3-pyridazinyl)-4-phenyl-1,3-thiazol-2-yl]benzamide]
134 to 135.5 °C | CCCn1nc(-c2sc(C(=O)NCc3ccccn3)nc2-c2ccccc2)ccc1=O [Example 203, 5-(6-Oxo-1-propyl-1,6-dihydro-3-pyridazinyl)-4-phenyl-N-(2-pyridinylmethyl)-1,3-thiazole-2-carboxamide]
226 to 228 °C | CC(C)n1nc(-c2sc(Nc3cccnc3)nc2-c2ccccc2)ccc1=O [Example 16, 2-Isopropyl-6-[4-phenyl-2-(3-pyridinylamino)-1,3-thiazol-5-yl]-3(2H)-pyridazinone]
198 to 199.5 °C | COCCn1nc(-c2sc(C(N)=O)nc2-c2ccccc2)ccc1=O [Example 168, 5-[1-(2-Methoxyethyl)-6-oxo-1,6-dihydro-3-pyridazinyl]-4-phenyl-1,3-thiazole-2-carboxamide]
140 to 143 °C | CC(C)n1nc(-c2sc(NCCN3CCOCC3)nc2-c2ccccc2)ccc1=O.Cl.Cl
78 to 82 °C | CC(=O)N1CCN(C(=O)c2nc(-c3ccccc3)c(-c3ccc(=O)n(C(C)C)n3)s2)CC1 [Example 219, 6-{2-[(4-Acetyl-1-piperazinyl)carbonyl]-4-phenyl-1,3-thiazol-5-yl}-2-isopropyl-3(2H)-pyridazinone]
172 to 174 °C | CC(C)n1nc(-c2sc(NC(=O)c3ccc(CN(C)CCc4ccccn4)cc3)nc2-c2ccccc2)ccc1=O [Example 147, N-[5-(1-Isopropyl-6-oxo-1,6-dihydro-3-pyridazinyl)-4-phenyl-1,3-thiazol-2-yl]-4-({methyl[2-(2-pyridinyl)ethyl]amino}methyl)benzamide]
192 to 194 °C | COCCNCc1ccc(C(=O)Nc2nc(-c3ccccc3)c(-c3ccc(=O)n(C(C)C)n3)s2)cc1 [Example 96, N-[5-(1-isopropyl-6-oxo-1,6-dihydro-3-pyridazinyl)-4-phenyl-1,3-thiazol-2-yl]-4-([(2-methoxyethyl)amino]methyl}benzamide]
141 to 144 °C | CC(C)n1nc(-c2sc(C(=O)N(C)C)nc2-c2ccccc2)ccc1=O [Example 213, 5-(1-isopropyl-6-oxo-1,6-dihydro-3-pyridazinyl)-N,N-dimethyl-4-phenyl-1,3-thiazole-2-carboxamide]
160 to 161 °C | CC(C)n1nc(-c2sc(NC(=O)Cn3ccnc3)nc2-c2ccccc2)ccc1=O [Example 102, 2-(1H-Imidazol-1-yl)-N-[5-(1-isopropyl-6-oxo-1,6-dihydro-3-pyridazinyl)-4-phenyl-1,3-thiazol-2-yl]acetamide]
183 to 184 °C | CC(C)n1nc(-c2sc(NC(=O)c3cccc(F)c3)nc2-c2ccccc2)ccc1=O [Example 36, 3-Fluoro-N-[5-(1-isopropyl-6-oxo-1,6-dihydro-3-pyridazinyl)-4-phenyl-1,3-thiazol-2-yl]benzamide]
152.5 to 153 °C | CCn1nc(-c2sc(C(=O)NC(C)C)nc2-c2ccccc2)ccc1=O [Example 178, 5-(1-ethyl-6-oxo-1,6-dihydro-3-pyridazinyl)-N-isopropyl-4-phenyl-1,3-thiazole-2-carboxamide]
189 to 190.5 °C | Cn1nc(-c2sc(C(=O)NCc3ccccn3)nc2-c2ccccc2)ccc1=O [Example 201, 5-(1-methyl-6-oxo-1,6-dihydro-3-pyridazinyl)-4-phenyl-N-(2-pyridinylmethyl)-1,3-thiazole-2-carboxamide]
